This data set deals with Rice (Oryza sativa) 'Taggart'. The settings on record: PRE, direct-seeded dryland rice. The text has this:
Rice (Oryza sativa) was planted in 6″ by 10″ fiber flats filled with sterile top soil. Five rows were made in each flat and the three rice varieties (′Cybonee, ‘Jupiter’, and ‘Taggart’) were planted in the center 3 rows and a row of red rice (Oryza sativa) was planted on either end of the flat. The flats were watered after planting. After application flats were placed in the greenhouse and lightly watered. […] The flats were moved to a greenhouse and watered and fertilized routinely. Studies were conducted using randomized complete block design with four replications. In both studies, visual percent red rice control and rice injury were recorded at 14, 21, and 28 days after treatment (DAT), using a scale of 0 (no control/injury) to 100 (complete plant death).

Where two headings read alike, the source gives them in different places.

With `CS(=O)(=O)c1ccc(C(=O)C2C(=O)CCCC2=O)c([N+](=O)[O-])c1` [Mesotrione, mesotrione], the “Percent rice injury Taggart” value reads like this: (14 DAT, 12.5 g ai/ha) 0 E %; (14 DAT, 25 g ai/ha) 0 E %; (14 DAT, 37.5 g ai/ha) 1 E %; (14 DAT, 50 g ai/ha) 2 DE %; (14 DAT, 62.5 g ai/ha) 6 C %; (14 DAT, 75 g ai/ha) 5 CD %. Also, the “Percent rice injury Taggart” value is, setting by setting: (14 DAT, 87.5 g ai/ha) 9 BC %; (14 DAT, 100 g ai/ha) 11 B %; (21 DAT, 12.5 g ai/ha) 0 C %; (21 DAT, 25 g ai/ha) 0 C %; (21 DAT, 37.5 g ai/ha) 1 BC %; (21 DAT, 50 g ai/ha) 5 BC %. Moreover, the “Percent rice injury Taggart” value runs as follows: (21 DAT, 62.5 g ai/ha) 9 BC %; (21 DAT, 75 g ai/ha) 10 BC %; (21 DAT, 87.5 g ai/ha) 11 BC %; (21 DAT, 100 g ai/ha) 13 B %; (28 DAT, 12.5 g ai/ha) 0 D %; (28 DAT, 25 g ai/ha) 0 D %. For the same molecule, the “Percent rice injury Taggart” value by setting is: (28 DAT, 37.5 g ai/ha) 1 D %; (28 DAT, 50 g ai/ha) 6 CD %; (28 DAT, 62.5 g ai/ha) 12 BCD %; (28 DAT, 75 g ai/ha) 23 BC %; (28 DAT, 87.5 g ai/ha) 29 B %; (28 DAT, 100 g ai/ha) 50 A %.
